Holding throughout (assay): NCI anticancer screen, dose series, 48 h
In assay [1] the test system is DMS-114.
For assay [2], the system named is KM-20L2.
Assay [3] concerns KM12.
Assay [4] deals with K562.
In assay [5] the test system is SK-MEL-5.
Assay [6] has as its system ACHN.
The test system of assay [7] is NCI-H460.
Assay [8] has as its system HCC 2998.
The subject of assay [9] is DU-145.
For assay [10], the system named is M19-MEL.
The test system of assay [11] is RXF 393.
Assay [12] has as its system IGROV-1.
Assay [13] concerns SK-MEL-28.
Assay [14] has as its system SK-MEL-2.
Assay [15] has as its system NCI-H23.
Assay [16] deals with SNB-78.
Assay [17] has as its system HOP-62.
The test system of assay [18] is SF-295.
Assay [19] concerns SF-268.
For assay [20], the system named is OVCAR-4.

This note sets out measurements from ChEMBL document CHEMBL1201862, “PubChem BioAssay data set” (2004).

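How tested: cells in 96-well plates exposed to compound for 48 hours at five concentrations. GI50: concentration for 50% inhibition of growth.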 Active and inactive are the calls of the source. Rule as the data show it: active = GI50 up to about 1.1 µM and inactive = higher.

As for `COc1ccc(CC2C(=O)NC(C)C(=O)N(C)C3C(=O)N(C)C(Cc4ccc(O)c(c4)Oc4ccc(cc4)C3O)C(=O)NC(C)C(=O)NC(C)C(=O)N2C)cc1` (stereo not given), the GI50 in assay [1] was 0.00145 µM (active); in assay [2], 0.0246 µM (active); in assay [3], 0.00215 µM (active); in [4] it was 0.0179 µM (active); in [5] it was 0.00746 µM (active); in assay [6], 0.0891 µM (active). Further, the GI50 in assay [7] is 0.0167 µM (active); in [8], 0.0391 µM (active); in [9], < 0.01 µM (active); in [10] it was 0.013 µM (active); in assay [11], 0.0396 µM (active); in [12], 0.0162 µM (active). The GI50 in assay [13] is 0.00223 µM (active); in assay [14] it was 0.0125 µM (active); in assay [15], 0.016 µM (active); in [16] it was 0.00188 µM (active); in [17], 0.0284 µM (active); in assay [18], 0.0138 µM (active). Besides, the GI50 is 0.0125 µM (active) in [19] and 0.00664 µM (active) in [20].

As for `Oc1cc(-n2cccn2)c(O)cc1-n1cccn1`, the GI50 was 26.4 µM (inactive) in [1]; > 85.7 µM (inactive) in assay [2]; 57.7 µM (inactive) in [3]; 11.2 µM (inactive) in [4]; 32.6 µM (inactive) in [5]; 22.4 µM (inactive) in assay [6]. Also, the GI50 in assay [7] is > 100 µM (inactive); in [8] it was > 100 µM (inactive); in [9] it was > 48.2 µM (inactive); in [10], 23.7 µM (inactive); in [11] it was 16.7 µM (inactive); in assay [12], 54.6 µM (inactive). Besides, the GI50 in assay [13] was 40.8 µM (inactive); in [14], > 88.5 µM (inactive); in assay [15], 43.7 µM (inactive); in assay [16] it was 34.8 µM (inactive); in assay [17] it was > 63.1 µM (inactive); in [18], 37.8 µM (inactive). The results for the GI50 in assay [19] and in assay [20] were 55.7 µM (inactive) and 19 µM (inactive), respectively.
